Results on two compounds are retold here after patent US20240025907A1, “QUINAZOLINE PAN-KRas INHIBITORS” (Mirati Therapeutics, Inc., priority 2022, published 2024).

Usually IC50 stands for the point on the concentration scale where inhibition reaches its midpoint.

In assay [1] the target is T1, KRas^G12D (Homo sapiens, UniProt P01116, G12D).
T1 construct: Biotinylated KRas (corresponding to amino acids 1-169, produced at Accelegan Inc.); biotin (biotinylated); purchased Accelegan Inc
In words: KRas TR-FRET tracer displacement binding assay, G12D. Particulars: 60-minute incubation. The method in brief:
(§1)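 TR-FRET displacement: biotinylated KRas (aa 1-169) incubated with Cy5-labelled tracer, terbium streptavidin and compound (1% DMSO final) in 50 mM HEPES pH 7.5, 5 mM MgCl2, 0.005% Tween-20, 1 mM DTT. Read after 60-minute room-temperature incubation.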
In general terms: Time-resolved FRET reads energy transfer from a long-lived donor to a nearby acceptor.

Assay [2] has as its target T2, KRas^G12V (Homo sapiens, UniProt P01116, G12V).
T2 construct: Biotinylated KRas (corresponding to amino acids 1-169, produced at Accelegan Inc.); biotin (biotinylated); purchased Accelegan Inc
The assay can be described thus: KRas TR-FRET tracer displacement binding assay, G12V. The conditions noted are these: 60-minute incubation. A digest of the protocol: as §1

In assay [3] the target is T3, KRas^G12R (Homo sapiens, UniProt P01116, G12R).
T3 construct: Biotinylated KRas (corresponding to amino acids 1-169, produced at Accelegan Inc.); biotin (biotinylated); purchased Accelegan Inc
In words: KRas TR-FRET tracer displacement binding assay, G12R. The conditions noted are these: 60-minute incubation. As to the method: This Example illustrates that exemplary compounds of the present invention bind to KRas and are capable of displacing a labeled tracer ligand occupying the KRas binding site. KRas^WT, KRas^G12A, KRas^G12C, KRas^G12D, KRas^G12R, KRas^G12S, KRas^G12V, KRas^G13D, or KRas^Q61H was used in the assay.
The ability of a compound to bind to KRas was measured using a TR-FRET displacement assay. Biotinylated KRas (corresponding to amino acids 1-169, produced at Accelegan Inc.) was incubated with custom made Cy5 labelled tracer, terbium streptavidin (Cisbio Inc.) and compound (1% DMSO final) in buffer (50 mM HEPES, pH 7.5, 5 mM MgCl2, 0.005% Tween-20 and 1 mM DTT). After a 60-minute incubation at room temperature, the reaction was measured using a BMG LABTECH CLARIO star Plus via TR-FRET. […] The POC values were fit to a 4-parameter IC50 equation and the IC50 value reported in Table 1 (selected Examples 172-222).

The subject of assay [4] is KRas-mediated Phosphorylation of ERK in AsPC-1 cells. The assay can be described thus: Cisbio HTRF pERK assay, AsPC-1 cells. The format is cell-based. The conditions noted are these: Homo sapiens, ASPC1, 3 h, 3 hrs compound, read-out: Inhibition (HTRF IC50 nM) of KRas-mediated Phosphorylation of ERK, AsPC-1.
Assay [5] deals with KRas-mediated Phosphorylation of ERK in H727 cells. The assay can be described thus: Cisbio HTRF pERK assay, H727 cells. The assay is classed as cell-based. The conditions noted are these: Homo sapiens, NCI-H727, 3 h, 3 hrs compound, read-out: Inhibition (HTRF IC50 nM) of KRas-mediated Phosphorylation of ERK, H727.
In assay [6] the test system is KRas-mediated Phosphorylation of ERK in HCT116 cells. The assay can be described thus: Cisbio HTRF pERK assay, HCT116 cells. Particulars: Homo sapiens, HCT-116, 3 h, HCT116 cells, 3 hrs compound; read-out: Inhibition (HTRF IC50 nM) of KRas-mediated Phosphorylation of ERK, HCT116. The assay is classed as cell-based.
Assay [7] has as its system KRas-mediated Phosphorylation of ERK in A549 cells. The assay can be described thus: Cisbio HTRF pERK assay, A549 cells. The format is cell-based. The conditions noted are these: Homo sapiens, A549, 3 h, A549 cells, 3 hrs compound; read-out: Inhibition (HTRF IC50 nM) of KRas-mediated Phosphorylation of ERK, A549.
For assay [8], the system named is KRas-mediated Phosphorylation of ERK in H460 cells. The assay can be described thus: Cisbio HTRF pERK assay, H460 cells. The assay is classed as cell-based. Particulars: Homo sapiens, NCI-H460, 3 h, H460 cells, 3 hrs compound; read-out: Inhibition (HTRF IC50 nM) of KRas-mediated Phosphorylation of ERK, H460.
The test system of assay [9] is KRas-mediated Phosphorylation of ERK in H358 cells. The assay can be described thus: Cisbio HTRF pERK assay, H358 cells. The assay is classed as cell-based. The conditions noted are these: Homo sapiens, NCI-H358, 3 h, H358 cells, 3 hrs compound; read-out: Inhibition (HTRF IC50 nM) of KRas-mediated Phosphorylation of ERK, H358.

T3 sequence (P01116 1-169 isoform P01116-2 G12R): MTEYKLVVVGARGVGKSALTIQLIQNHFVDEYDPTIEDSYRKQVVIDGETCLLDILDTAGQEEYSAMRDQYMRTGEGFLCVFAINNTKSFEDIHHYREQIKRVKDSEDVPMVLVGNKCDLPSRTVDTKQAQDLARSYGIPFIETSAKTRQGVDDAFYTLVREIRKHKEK
T1 sequence (P01116 1-169 isoform P01116-2 G12D): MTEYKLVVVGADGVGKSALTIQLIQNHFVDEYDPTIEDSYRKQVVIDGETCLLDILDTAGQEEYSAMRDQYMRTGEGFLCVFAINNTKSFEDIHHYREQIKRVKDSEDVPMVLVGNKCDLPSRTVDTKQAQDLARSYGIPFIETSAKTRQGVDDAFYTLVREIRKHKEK
T2 sequence (P01116 1-169 isoform P01116-2 G12V): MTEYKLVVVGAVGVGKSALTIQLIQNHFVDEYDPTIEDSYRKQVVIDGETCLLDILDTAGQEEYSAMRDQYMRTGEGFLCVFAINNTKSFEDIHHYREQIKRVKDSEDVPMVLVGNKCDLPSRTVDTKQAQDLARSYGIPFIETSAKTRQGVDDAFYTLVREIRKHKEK

In the case of `CCc1c(F)ccc2cc(O)cc(-c3c(F)cc4c(NCc5c[nH]c6ncccc56)nc(OC[C@@]56CCCN5C[C@H](F)C6)nc4c3F)c12` [Example 174, 4-(4-(((1H-pyrrolo[2,3-b]pyridin-3-yl)methyl)amino)-6,8-difluoro-2-(((2R,7aS)-2-fluorotetrahydro-1H-pyrrolizin-7a(5H)-yl)methoxy)quinazolin-7-yl)-5-ethyl-6-fluoronaphthalen-2-ol], the IC50 in assay [1] stood at 285 nM; in [2] it was 9 nM; in [3], 9 nM; in assay [4], 4020 nM; in assay [5], 694 nM; in assay [6] it was 2260 nM. The IC50 in assay [7] amounted to 734 nM; in assay [8], 968 nM; in assay [9] it was 324 nM.
In the case of `CCc1c(F)ccc2cc(O)cc(-c3c(F)cc4c(N5CC(c6ccncc6)C5)nc(OC[C@@]56CCCN5C[C@H](F)C6)nc4c3F)c12` [Example 175, 4-(6,8-difluoro-2-(((2R,7aS)-2-fluorotetrahydro-1H-pyrrolizin-7a(5H)-yl)methoxy)-4-(3-(pyridin-4-yl)azetidin-1-yl)quinazolin-7-yl)-5-ethyl-6-fluoronaphthalen-2-ol], the IC50 in [1] was 313 nM; in [2] it was 12 nM; in assay [3], 16 nM; in assay [4] it was 1280 nM; in [5] it was 422 nM; in assay [6], 1640 nM. Moreover, the IC50 in assay [7] amounted to 490 nM; in assay [8] it was 445 nM; in assay [9], 185 nM.
